Assay results from patent publication US20150164794A1, “METHOD FOR PREPARING AQUEOUS NANOPARTICLE SUSPENSIONS OF DERIVATIVES OF 4,9-DIHYDROXY-NAPHTHO[2,3-b]FURAN ALIPHATIC ACID ESTERS” (Zhoushan Haizhongzhou Xinsheng Pharmaceuticals, Co., Ltd., priority 2012, published 2015).
Where two headings read alike, the source gives them in different places.

Experiment: Pharmacokinetic study of nanoparticle suspension NS-I-4 in ICR mice
Format: in vivo
Conditions: for MRT last: read-out: MRT(0-t); for MRT inf: read-out: MRT(0-∞); for Vd: read-out: Vz
Protocol: Nanoparticle suspension NS-I-4, prepared according to the method as described in example 5, was administered intravenously into ICR mice at a dosage of 30 mg/kg. At different time points (5 min, 10 min, 30 min, 1 h, 2 h, 3 h, 4 h, 6 h) after the drug injection, blood samples were withdrawn from the dosed mice, and then were centrifuged at 6,000 rpm for 10 minutes at 4° C. The supernatant plasma samples were fetched and treated with 9 times volume of acetonitrile containing 0.5% trifluoromethane sulfonic acid. The treated plasmas were centrifuged at 12,000 rpm for 15 minutes at 4° C., and then the supernatants were fetched and analyzed with HPLC.
During treatment of blood samples before HPLC analysis, active drug 2-acetyl-4,9-dihydroxy-naphtho[2,3-b]furan and active metabolite 2-(1-hydroxyl)ethyl-4,9-dihydroxy-naphtho[2,3-b]furan are both oxidized into 2-acetyl-naphtho[2,3-b]furan-4,9-dione and 2-(1-hydroxyl)ethyl-naphtho[2,3-b]furan-4,9-dione, respectively (see scheme 1).
Scheme 1: Compound I is degraded by esterases into active drug, which is further metabolized into active metabolite. During pre-treatment for HPLC analysis, active drug and metabolite are oxidized by oxygen from air to oxidized drug and oxidized metabolite, respectively.
The Waters HPLC system used in this study includes: 1525 dual pump, 2998 photodiode array detector, 2707 auto sampler, Breeze 2 control and analysis software. The HPLC column used in this study: Phenomenex Luna C18, 250×4.60 mm 5 micron. The HPLC mobile phase: buffer A, 80% water, 20% acetonitrile; buffer B, 10% water, 70% acetonitrile, 20% tetrahydrofuran. The HPLC mobile phase gradient: 0-3 min, 50% buffer B to 50% buffer B, 3-10 min, 50% buffer B to 100% buffer B, 10-20 min, 100% buffer B to 100% buffer B, 20-22 min, 100% buffer B−50% buffer B, 22-25 min, 50% buffer B to 50% buffer B; flow rate, 1 ml/min.
Time courses of compound I, oxidized drug and oxidized active metabolite are illustrated in FIG. 2.

[1] = analyte in mouse plasma after NS-I-4 intravenously 30 mg/kg, ICR mice
[2] = iv, analyte in mouse plasma after NS-I-4 intravenously 30 mg/kg, ICR mice
[3] = iv, analyte in mouse plasma after NS-I-4 intravenously 30 mg/kg, ICR mice, read-out: AUC(0-t)
[4] = iv, analyte in mouse plasma after NS-I-4 intravenously 30 mg/kg, ICR mice, read-out: Cmax
[5] = iv, analyte in mouse plasma after NS-I-4 intravenously 30 mg/kg, ICR mice, read-out: Tmax

AUC(0-t) [1] [ng·h/mL]	AUC(0-∞) [1] [ng·h/mL]	CLz [1] [mL/min/kg]	Cmax [1] [ng/mL]	MRT(0-t) [1] [min]	MRT(0-∞) [1] [min]	Tmax [1] [min]	Vz [1] [L/kg]	t1/2z [1] [min]	AUC(0-inf) [2] [ng·h/mL]	AUC(0-t) [3] [ng·h/mL]	Cmax [4] [ng/mL]	MRT last [2] [min]	MRT inf [2] [min]	Tmax [5] [min]	Vd [2] [L/kg]	Compound	metabolic fate (administered intravenously into ICR mice)
3801	3999	250.07	1695	86.28	97.68	30	19.051	52.8	–	–	–	–	–	–	–	CC(O)c1cc2c(o1)C(=O)c1ccccc1C2=O (stereo not shown) [2-(1-hydroxy)ethyl-naphtho[2,3-b]furan-4,9-dione]	–
–	–	58.62	–	–	–	–	–	184.4	8530	7420	6130	74.9	147	10	15.6	CC(=O)c1cc2c(o1)C(=O)c1ccccc1C2=O [2-acetyl-naphtho[2,3-b]furan-4,9-dione]	–
–	–	1.97	–	–	–	–	–	23.8	255000	255000	288000	37.7	37.7	10	0.067	CCCCCCCC(=O)Oc1c2ccccc2c(OC(=O)CCCCCCC)c2oc(C(C)=O)cc12 [Compound I, 2-acetyl-4,9-bis(octanoyloxy)-naphtho[2,3-b]furan]	degraded by esterases into active drug 2-acetyl-4,9-dihydroxy-naphtho[2,3-b]furan
